Source: ChEMBL document CHEMBL3865812, “Selective killing of cancer cells with triterpenoic acid amides - The substantial role of an aromatic moiety alignment” (Eur J Med Chem, 2016)
Active and inactive are the calls of the source. The calls are words filed in the database; no cut-off is given here.

Key:
[1] = Cytotoxicity against human A2780 cells measured after 96 hrs by SRB assay; assay type: functional, cell-based; settings: A2780, 96 h
[2] = Cytotoxicity against human HT-29 cells measured after 96 hrs by SRB assay; assay type: functional, cell-based; settings: HT-29, 96 h
A2780 [3] = test: Induction of apoptosis in human A2780 cells assessed as increase in apoptotic cells at 1.5 uM measured after 24 hrs by Annexin V/FITC/propidium iodide staining-based FACS analysis relative to control; assay type: functional
[4] = Cell cycle arrest in human A2780 cells assessed as decrease in accumulation of cells at S-phase at 1.5 uM measured after 48 hrs by propidium iodide staining based FACS analysis; assay type: functional
[5] = Cytotoxicity against mouse NIH/3T3 cells measured after 96 hrs by SRB assay; assay type: toxicity, NIH3T3
[6] = Cell cycle arrest in human A2780 cells assessed as sub-G1 peak appearance at 1.5 uM measured after 48 hrs by propidium iodide staining based FACS analysis; assay type: functional
[7] = Cytotoxicity against human MCF7 cells measured after 96 hrs by SRB assay; assay type: functional, cell-based; settings: MCF7, 96 h
[8] = Cytotoxicity against human 518A2 cells measured after 96 hrs by SRB assay; assay type: functional, cell-based; settings: 518A2, 96 h
A2780 [9] = test: Induction of apoptosis in human A2780 cells assessed as secondary necrotic cells at 6 uM measured after 2 days by Annexin V/FITC/propidium iodide staining-based FACS analysis; assay type: functional, cell-based
A2780 [10] = test: Induction of apoptosis in human A2780 cells assessed as apoptotic cells at 1.5 uM measured after 48 hrs by Annexin V/FITC/propidium iodide staining-based FACS analysis relative to control; assay type: functional
[11] = Cell cycle arrest in human A2780 cells assessed as loss of G2 peak at 1.5 uM measured after 24 hrs by propidium iodide staining based FACS analysis; assay type: functional
A2780 [12] = test: Induction of apoptosis in human A2780 cells assessed as increase in apoptotic cells at 6 uM measured after 2 days by Annexin V/FITC/propidium iodide staining-based FACS analysis; assay type: functional, cell-based
A2780 [13] = test: Induction of apoptosis in human A2780 cells assessed as increase in secondary necrotic cells at 1.5 uM measured after 48 hrs by Annexin V/FITC/propidium iodide staining-based FACS analysis relative to control; assay type: functional
[14] = Cytotoxicity against human A549 cells measured after 96 hrs by SRB assay; assay type: functional, cell-based; settings: A549, 96 h
[15] = Cell cycle arrest in human A2780 cells assessed as accumulation at S-phase at 1.5 uM measured after 24 hrs by propidium iodide staining based FACS analysis; assay type: functional
A2780 [16] = test: Selectivity index, ratio of EC50 for mouse NIH/3T3 cells to EC50 for human A2780 cells; assay type: functional
[17] = Cell cycle arrest in human A2780 cells assessed as decrease in G1 peak at 1.5 uM measured after 24 hrs by propidium iodide staining based FACS analysis; assay type: functional
[18] = Cytotoxicity against human 8505C cells measured after 96 hrs by SRB assay; assay type: functional, cell-based
[19] = Cell cycle arrest in human A2780 cells assessed as decrease in G1 peak at 6 uM measured after 24 hrs by propidium iodide staining based FACS analysis; assay type: functional
[20] = Cell cycle arrest in human A2780 cells assessed as accumulation at S-phase at 6 uM measured after 24 hrs by propidium iodide staining based FACS analysis; assay type: functional
[21] = Cell cycle arrest in human A2780 cells assessed as sub-G1 peak appearance at 6 uM measured after 48 hrs by propidium iodide staining based FACS analysis; assay type: functional
A2780 [22] = test: Induction of apoptosis in human A2780 cells assessed as induction of membrane blebbing at 6 uM measured after 40 hrs by acridine orange/propidium iodide staining-based fluorescence microscopic analysis; assay type: functional, cell-based
A2780 [23] = test: Induction of apoptosis in human A2780 cells assessed as secondary necrotic cells at 6 uM measured after 40 hrs by acridine orange/propidium iodide staining-based fluorescence microscopic analysis; assay type: functional, cell-based
[24] = Cell cycle arrest in human A2780 cells assessed as decrease in accumulation of cells at S-phase at 6 uM measured after 48 hrs by propidium iodide staining based FACS analysis; assay type: functional
[25] = Cell cycle arrest in human A2780 cells assessed as loss of G2 peak at 6 uM measured after 24 hrs by propidium iodide staining based FACS analysis; assay type: functional

| SMILES | EC50 [1] [µM] | EC50 [2] [µM] | Activity [4] | EC50 at 96 h [5] [µM] | Activity [6] | EC50 [7] [µM] | EC50 [8] [µM] | Activity (A2780 [9]) | Activity (A2780 [10]) | Activity [11] | Activity (A2780 [12]) | Activity (A2780 [13]) | EC50 [14] [µM] | Activity [15] | Activity [17] | EC50 [18] [µM] | other results |
| --- | --- | --- | --- | --- | --- | --- | --- | --- | --- | --- | --- | --- | --- | --- | --- | --- | --- |
| CC(=O)OC[C@@]1(C)[C@@H]2CC[C@]3(C)[C@H](CC=C4[C@@H]5[C@@H](C)[C@H](C)CC[C@]5(C(=O)Nc5cncc6ccccc56)CC[C@]43C)[C@@]2(C)C[C@@H](OC(C)=O)[C@@H]1OC(C)=O | 0.08 | 0.22 | Active | 3.23 | Active | 0.54 | 0.19 | Active | 10% | Active | Active | 45% | 0.29 | Active | Active |  | Activity (A2780 [3]): 20%; Ratio EC50 (A2780 [16]): 40 |
| CC(=O)OC[C@@]1(C)[C@@H]2CC[C@]3(C)[C@H](CC=C4[C@@H]5[C@@H](C)[C@H](C)CC[C@]5(C(=O)Nc5cccc6ncccc56)CC[C@]43C)[C@@]2(C)C[C@@H](OC(C)=O)[C@@H]1OC(C)=O | 0.4 | 0.8 | Active | 10.2 | Active | 1.4 | 0.5 | Active | Active | Active | Active | Active | 1.1 | Active | Active | 0.9 |  |
| CC(=O)O[C@H]1C[C@]2(C)[C@H]3CC=C4[C@@H]5CC(C)(C)CC[C@]5(C(=O)Nc5cncc6ccccc56)CC[C@@]4(C)[C@]3(C)CC[C@H]2C(C)(C)[C@H]1OC(C)=O | 1.2 | 2.3 |  | > 60 |  | 2.4 | 1.6 | Active |  |  | Active |  | 3.3 |  |  | 2.6 | Activity [19]: Active; Activity [20]: Active; Activity [21]: Active; Activity (A2780 [22]): Active; Activity (A2780 [23]): Active; Activity [24]: Active; Activity [25]: Active |
